Test results as given in patent EP0496162A2, “Peptide inhibitors of RAS-GAP interaction” (MERCK & CO. INC., priority 1990, dated 1992).
No end group written: not given here.

What was measured:
Ras-GAP interaction = molecular target: T1, Ras-GAP interaction (Bos taurus, UniProt P09851); assay: Ras-GAP interaction inhibition assay (GAP-stimulated Ras GTPase, charcoal adsorption); format: biochemical, bovine; conditions: concentration of peptide required to reduce GAP stimulated Ras-GTP hydrolysis by 50%; 10 fmol GAP, 240 fmol Ha ras p21-GTP, 4 minutes at 24°C
T1 construct: made in house; host or cells: GAP: E. coli JM109 (plasmid pYO); Ha-Ras: E. coli RRllaci^q (plasmid pRas[Gly12 Ala59])
T1 sequence (P09851 1-1044): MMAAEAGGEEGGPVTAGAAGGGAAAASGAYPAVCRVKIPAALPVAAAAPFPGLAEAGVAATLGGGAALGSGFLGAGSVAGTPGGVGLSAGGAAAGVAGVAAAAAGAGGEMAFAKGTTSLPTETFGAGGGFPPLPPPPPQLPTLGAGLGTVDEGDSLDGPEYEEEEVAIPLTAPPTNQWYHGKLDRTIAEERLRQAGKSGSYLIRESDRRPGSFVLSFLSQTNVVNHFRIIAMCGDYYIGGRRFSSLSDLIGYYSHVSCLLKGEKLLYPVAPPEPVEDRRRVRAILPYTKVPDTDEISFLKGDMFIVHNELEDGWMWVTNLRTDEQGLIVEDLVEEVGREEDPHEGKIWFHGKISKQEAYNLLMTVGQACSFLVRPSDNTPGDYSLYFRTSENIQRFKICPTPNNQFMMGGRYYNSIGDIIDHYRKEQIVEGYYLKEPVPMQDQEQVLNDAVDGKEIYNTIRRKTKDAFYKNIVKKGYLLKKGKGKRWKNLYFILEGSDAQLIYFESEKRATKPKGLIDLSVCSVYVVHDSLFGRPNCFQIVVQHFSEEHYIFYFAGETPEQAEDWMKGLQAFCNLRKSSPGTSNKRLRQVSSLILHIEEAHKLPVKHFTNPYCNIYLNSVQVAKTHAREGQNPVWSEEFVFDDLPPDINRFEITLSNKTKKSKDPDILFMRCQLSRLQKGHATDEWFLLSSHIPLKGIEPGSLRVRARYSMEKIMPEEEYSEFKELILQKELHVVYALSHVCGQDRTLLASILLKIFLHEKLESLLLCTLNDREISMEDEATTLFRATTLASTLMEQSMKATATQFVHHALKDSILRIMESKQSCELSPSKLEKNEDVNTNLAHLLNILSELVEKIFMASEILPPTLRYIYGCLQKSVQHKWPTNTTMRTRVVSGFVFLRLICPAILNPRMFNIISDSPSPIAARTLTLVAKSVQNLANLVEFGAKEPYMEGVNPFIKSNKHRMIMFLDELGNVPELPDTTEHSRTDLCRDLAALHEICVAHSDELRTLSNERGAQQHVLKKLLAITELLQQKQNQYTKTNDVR
Protocol: The activity of the synthetic peptides of the present invention, as inhibitors of the interaction of ras with GAP was determined in an assay which measures GAP dependent, Ras GTPase activity. Bovine GAP was either purified from fresh bovine brains or recombinantly produced in E. coli. It is understood that the methods of the present invention may utilize either the recombinant full length GAP or the bovine brain derived GAP. In addition, GAP from other species, such as human and mouse, may be substituted for bovine GAP since they share about 95% amino acid homology. Truncated recombinant forms of GAP are also suitable for use in the Ras-GAP interaction assay [Marshall, M.S., et al., (1989), EMBO J., 8, pp1105-1110]. However, for the screening of synthetic peptides for their ability to block the Ras-GAP interaction, the recombinant, full length GAP is preferred.
The Ras protein utilized in the Ras-GAP GTPase assay of the present invention is Harvey ras (Ha-ras). It is understood that other forms of Ras protein are suitable for use in the present invention. Other suitable forms of Ras protein include, but are not limited to, Kirsten Ras, yeast S. cerevisiae RAS, and N-Ras. Furthermore, it is readily apparent to those skilled in the art that any form of Ras protein which is capable of interacting with GAP is suitable for use in the Ras-GAP GTPase assay.
Ras GTPase activity was measured by the charcoal adsorption procedure. Each 50 µL reaction contained 10 fmol purified GAP, 240 fmol Ha ras p21-[γ ³²P] GTP and 1 mg/mL BSA in buffer D. Varying amounts of the competing peptides were added as indicated. Prewarmed reactions (24°C) were initiated by the addition of GAP, then incubated for 4 minutes at 24°C. The reactions were terminated by the addition of 5 volumes of ice cold 5% activated charcoal (Sigma: HCl washed) in 50 mM NaH₂PO₄. GTPase activity was quantitated by measuring the free ³²P-orthophosphate in the cleared supernatant after centrifugation of the charcoal mix. GAP-stimulated Ras GTPase activity in the absence of competitors was 40-60 fmol Ras-GTP hydrolyzed; the 100% control value. In the absence of GAP, GTP hydrolysis was not detectable during the incubation period of the assay. Inhibitors of this assay block GAP-stimulated Ras GTPase without impairing intrinsic Ras GTPase, assayed in the absence of GAP following incubation at 24°C for one hour.
(§1) Ras peptides were dissolved in either 100% dimethyl formamide (DMF, American Burdick and Jackson) or 100% dimethyl sulfoxide (DMSO, Fluka UV-spectroscopy grade) at a calculated peptide concentration of 1-4 mM. Following 1 minute in a Sonicor SC-200 bath sonicator at room temperature, the peptide solutions were vortexed, and then centrifuged for 5 minutes at room temperature in an Eppendorf microfuge to remove any undissolved material. 20 µL of the cleared peptide solutions were then added to 80 µL of Buffer D in a dilution series covering a range of peptide concentrations from 0.02 µM up to the maximum solubility limit for each peptide. In each dilution, the solvent concentration was maintained at 20%. These peptides solutions were then centrifuged for 5 minutes at room temperature at 10,000 x g, and the cleared supernatants were divided into 2 parts. One part of each cleared peptide dilution was used in a GAP competition assay: 40 µL was added to a 5 µL solution containing 0.1 mg/mL BSA plus 240 fmol Ha-ras p21-[γ-³²P]GTP. Reactions were initiated upon addition of 5 µL of diluted GAP (10 fmol), and analyzed as described above.

[1] = format: physicochemical
Protocol: as §1
The other portion of the cleared peptide solution was measured spectrophotometrically to determine solubility and concentration of the peptides. Extinction coefficients were determined by measuring the absorbance at 277 nm of 2 peptides whose exact concentrations were quantitated by amino acid analysis. The extinction coefficients for peptide Ras 17-37 dissolved in buffer D/20% DMF or peptide Ras 91-103 (SEQ ID NO:14)dissolved in water/20% DMSO, were 2580 cm⁻¹M⁻¹ and 2230 cm⁻¹ M⁻¹, respectively. These values were used to determine the exact concentration for each peptide used at each point in the competition assay. In addition, peptide solubility was confirmed by comparing the light scattering at 600 nm for each peptide solution measured before and after centrifugation. Only concentrations reflecting 100% solubility were used in the dose response curves, and the maximum concentration used for each peptide competitor indicates the limit of solubility for that peptide.

LIQNHFVDEYDPTIE [Ras 23-37]
IC50* (Ras-GAP interaction): no inhibition
Maximum Solubility [1]: 250 µM

SALTIQLIQNHFVDEYDPTIE [Ras 17-37]
IC50 (Ras-GAP interaction): 3600 nM
Maximum Solubility [1]: 40 µM

CC[C@H](C)[C@H](NC(=O)[C@H](CC(C)C)NC(=O)[C@H](CCC(N)=O)NC(=O)[C@@H](NC(=O)[C@@H](NC(=O)[C@H](CC(C)C)NC(=O)[C@H](C)NC(=O)[C@@H](N)CO)[C@@H](C)O)[C@@H](C)CC)C(=O)N[C@@H](CCC(N)=O)C(=O)N[C@@H](CC(N)=O)C(=O)N[C@@H](Cc1c[nH]cn1)C(=O)N[C@@H](Cc1ccccc1)C(=O)N[C@H](C(=O)N[C@@H](CC(=O)O)C(=O)N[C@@H](CCC(=O)O)C(=O)N[C@@H](Cc1ccc(O)cc1)C(=O)O)C(C)C [Ras 17-32]
IC50 (Ras-GAP interaction): 900 nM
Maximum Solubility [1]: 19 µM
